What is called inhibition is the change of the read-out against control, counted positive when it falls. What is called pIC50 is the negative decadic logarithm of the IC50, by convention in mol/L. As a reminder, the melting point is the temperature of the solid-liquid transition.

pIC50: −log10 of the molar value. Where “and” joins values, the source holds several entries; their conditions need not be identical. Equal values may be shown once.

36 compounds from PMC3968014, “Design and Synthesis of a Library of Lead-Like 2,4-Bisheterocyclic Substituted Thiophenes as Selective Dyrk/Clk Inhibitors” (PLoS ONE, 2014) can be followed below.

The target of series [1] is T1, Dyrk1A (Homo sapiens, UniProt Q13627).
T1 construct: encoding the catalytic domain of human Dyrk1A; thrombin cleavage site (N); made in house; host or cells: Escherichia coli BL21(DE3) with pRARE
Briefly: Dyrk1A kinase assay (32P-ATP, Woodtide). In kind it is biochemical. Particulars: for inhibition at 5 µM: read-out: percentage of inhibition Dyrk1A; for pIC50: 100 µM ATP; for inhibition at 5 µM / percentage of inhibition Dyrk1A: at 5 µM.

For series [2], the target named is T2, Dyrk1B (Homo sapiens, UniProt Q9Y463).
T2 construct: purchased Life Technologies PV4649 (LOT # 877059G)
Briefly: Dyrk1B kinase assay (32P-ATP, Woodtide). Format: biochemical. Particulars: for inhibition at 5 µM / inhibition at 1 µM: read-out: percentage of inhibition Dyrk1B; for pIC50: 100 µM ATP; for inhibition at 5 µM / percentage of inhibition Dyrk1B: at 5 µM.

Series [3] deals with T3, Dyrk2 (Homo sapiens, UniProt Q92630).
T3 construct: made in house; host or cells: Escherichia coli BL21(DE3) with pRARE; plasmid pGEX-2TK-Dyrk2 (gift from W. Becker, Aachen)
T3 sequence (Q92630 1-601): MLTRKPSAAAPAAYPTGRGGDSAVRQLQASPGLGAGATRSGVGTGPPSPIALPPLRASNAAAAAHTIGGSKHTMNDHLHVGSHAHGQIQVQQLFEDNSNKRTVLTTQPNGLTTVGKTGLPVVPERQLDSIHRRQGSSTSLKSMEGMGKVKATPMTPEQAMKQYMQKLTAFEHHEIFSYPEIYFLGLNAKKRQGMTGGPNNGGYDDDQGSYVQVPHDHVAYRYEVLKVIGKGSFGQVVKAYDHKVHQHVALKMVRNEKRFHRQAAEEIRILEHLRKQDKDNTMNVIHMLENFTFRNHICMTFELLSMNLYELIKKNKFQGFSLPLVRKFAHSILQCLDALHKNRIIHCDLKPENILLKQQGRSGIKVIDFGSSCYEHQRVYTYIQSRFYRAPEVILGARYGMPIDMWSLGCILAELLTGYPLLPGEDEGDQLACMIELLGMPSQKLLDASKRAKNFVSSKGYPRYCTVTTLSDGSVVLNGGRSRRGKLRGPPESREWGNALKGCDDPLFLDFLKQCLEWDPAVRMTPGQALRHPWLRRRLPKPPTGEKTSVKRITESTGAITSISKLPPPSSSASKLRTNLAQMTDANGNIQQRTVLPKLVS
The series can be described thus: Dyrk2 kinase assay (32P-ATP, Woodtide). In kind it is biochemical. The note with it: for inhibition at 5 µM / inhibition at 1 µM: read-out: percentage of inhibition Dyrk2; for pIC50: 100 µM ATP, read-out: IC50 Dyrk2.

The target in series [4] is T4, CK2α (Homo sapiens, UniProt P68400).
T4 construct: purchased Life Technologies (Invitrogen SelectScreen); Dyrk1A, Dyrk2 and CK2α in-house or gifts
The series can be described thus: CK2α kinase assay (counter screen). In kind it is biochemical. The note with it: read-out: percentage of inhibition CK2α. The procedure:
Dyrk1A, Dyrk1B, Dyrk2, CK2α and Clk1 kinase reactions were performed in a reaction buffer containing 50 mM Tris/HCl, pH 7.4, 0.1 mM EGTA, 0.5 mM DTT, 10 mM MgCl2, 100 µM ATP and 0.33 µM [γ-^32ATP] as well as the appropriate substrate peptides, which were 100 µM Woodtide for the Dyrk isoforms ([…]-NH2), 60 µM CK2 substrate peptide ([…]-NH2, from Millipore) for CK2α or RS repeat peptide ([…]) for Clk1. The CK2α protein was a kind gift of M. Montenarh (Homburg). The kinase reactions were performed at 30°C for 15 min and terminated by spotting 5 µL of the reaction mixture onto a P81 phosphocellulose membrane (Whatman). The membrane was washed four times with 0.3% phosphoric acid and one time with acetone and dried. The dry membrane was exposed in a cassette to a Phosphor Screen Imaging Plate (FujiFilm) and the signals detected by scanning of the imaging plate in a Fuji FLA-3000 PhosphoImager. The spots were quantified using AIDA software (Raytest, Version 3.52) to determine the activities of the kinases in the assay reactions. […] IC50 values were calculated by fitting the data with Origin Pro 8.6 (OriginLabs). The calculated IC50 values are representative of at least two independent determinations.
In general terms: A counterscreen serves to expose hits that act by an unwanted route or on another target.

T4 sequence (P68400 whole entry): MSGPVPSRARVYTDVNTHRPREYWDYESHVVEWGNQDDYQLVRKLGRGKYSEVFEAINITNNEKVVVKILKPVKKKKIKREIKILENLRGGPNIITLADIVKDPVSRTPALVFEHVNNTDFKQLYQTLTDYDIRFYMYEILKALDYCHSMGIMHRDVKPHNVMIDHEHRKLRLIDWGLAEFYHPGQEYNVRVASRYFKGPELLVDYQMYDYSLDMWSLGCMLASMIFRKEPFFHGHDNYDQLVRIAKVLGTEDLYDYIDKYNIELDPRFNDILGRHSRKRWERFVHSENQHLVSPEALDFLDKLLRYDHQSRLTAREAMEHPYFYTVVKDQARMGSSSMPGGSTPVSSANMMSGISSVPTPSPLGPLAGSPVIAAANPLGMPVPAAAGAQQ
T2 sequence (Q9Y463 whole entry): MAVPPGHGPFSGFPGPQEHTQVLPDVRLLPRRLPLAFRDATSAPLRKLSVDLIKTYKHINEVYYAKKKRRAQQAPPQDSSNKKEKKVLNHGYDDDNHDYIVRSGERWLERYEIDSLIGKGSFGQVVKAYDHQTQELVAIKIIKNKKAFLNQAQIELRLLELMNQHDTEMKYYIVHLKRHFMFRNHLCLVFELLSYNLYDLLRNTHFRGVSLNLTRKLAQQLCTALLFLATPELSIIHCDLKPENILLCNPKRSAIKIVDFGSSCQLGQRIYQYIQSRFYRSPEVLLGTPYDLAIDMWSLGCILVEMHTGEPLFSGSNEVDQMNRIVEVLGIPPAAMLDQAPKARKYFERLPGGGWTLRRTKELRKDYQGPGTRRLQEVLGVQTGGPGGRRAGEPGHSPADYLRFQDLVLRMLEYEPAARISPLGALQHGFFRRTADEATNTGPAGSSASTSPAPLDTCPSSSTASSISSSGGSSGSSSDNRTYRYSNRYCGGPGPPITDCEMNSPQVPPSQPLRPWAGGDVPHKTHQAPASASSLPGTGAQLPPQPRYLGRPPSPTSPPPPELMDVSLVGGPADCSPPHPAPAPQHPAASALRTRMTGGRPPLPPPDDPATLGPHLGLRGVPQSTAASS

Consider `c1ccc2c(-c3csc(-c4cncnc4)c3)cncc2c1` [Compound 46], for which the inhibition at 5 µM is 9% in series [1], 33% in series [2] and 15% in series [3] (at 5 µM).
As for `CSc1ncc(-c2csc(-c3cncnc3)c2)cn1` [Compound 45], the inhibition at 5 µM in series [1] was 8%; in series [2], 20%; in series [3] (at 5 µM), -24%.
In the case of `c1cncc(-c2cc(-c3cscn3)cs2)c1` [Compound 28], the inhibition at 5 µM in series [1] worked out at 31%. For the same compound, in series [3], the pIC50 is 5.17.
Regarding `Fc1cncc(-c2csc(-c3cccnc3)c2)c1` [Compound 15, 3-fluoro-5-[5-(pyridin-3-yl)thiophen-3-yl]pyridine], the melting point fell in the range of 186 to 187 °C. The same compound had a pIC50 in series [1] of 6.05. The same compound gave a pIC50 in series [2] of 5.85. The inhibition at 5 µM in series [4] was found to be 0%. Moreover, the pIC50 in series [3] was 6.40.
As for `Cc1cc(-c2csc(-c3cccnc3)c2)ccn1` [Compound 12], the inhibition at 5 µM stood at 23% in series [1] and 37.5% in series [3] (at 5 µM). Further, in series [2], the “percentage of inhibition Dyrk1B” value is given as “No inhibition”.
Consider `COc1ccc(-c2csc(-c3cccnc3)c2)cn1` [Compound 9], for which the pIC50 in series [2] is 4.47. Besides, the inhibition at 5 µM in series [4] turned out to be 0%. The “percentage of inhibition Dyrk2” value in series [3] (at 5 µM) is on record as “No inhibition”.
`Cn1ccc(-c2csc(-c3cccnc3)c2)cc1=O` [Compound 26]: the “percentage of inhibition Dyrk1A” value in series [1] is listed as “No inhibition”. The “percentage of inhibition Dyrk1B” value in series [2] was “No inhibition”. Besides, the inhibition at 5 µM in series [3] (at 5 µM) worked out at 27%.
Consider `c1cncc(-c2cc(-c3ccc4c(c3)CCO4)cs2)c1` [Compound 27], for which, in series [1], the “percentage of inhibition Dyrk1A” value is “No inhibition”. The “percentage of inhibition Dyrk1B” value in series [2] was “No inhibition”. For the same compound, in series [3] (at 5 µM), the inhibition at 5 µM turned out to be 31%.
For `Cc1cncc(-c2csc(-c3cnco3)c2)c1` [Compound 35], the pIC50 in series [1] was 5.92; in series [2], 5.96; in series [3], 5.82. The inhibition at 5 µM in series [4] is -15%.
Taken in the same sequence, the figures for `c1cncc(-c2cc(-c3cnc4ccccn34)cs2)c1` [Compound 32] were 5.66, 6.22, 6.40 and 0%.
In the case of `CCOc1cncc(-c2csc(-c3cccnc3)c2)c1` [Compound 10], the inhibition at 5 µM in series [1] was determined as 45%; in series [4], 0%. For the same compound, the results for the inhibition at 1 µM in series [2] and in series [3] were 6% and 22%, respectively.
Turning to `c1cncc(-c2csc(-c3cncc4ccccc34)c2)c1` [Compound 47], the results for the pIC50 in series [1], in series [2] and in series [3] were 5.82, 5.62 and 5.92, respectively. Also, in series [4], the inhibition at 5 µM is 3%.
For `c1ncc(-c2csc(-c3cncnc3)c2)cn1` [Compound 44], the inhibition at 5 µM in series [1] was found to be 2%; in series [2] it was 27%; in series [3] (at 5 µM), 27%.
In the case of `Cc1ccncc1-c1csc(-c2cccnc2)c1` [Compound 6], the pIC50 is 5.36 in series [1] and 5.10 in series [2]. For the same compound, the inhibition at 5 µM in series [4] amounted to 0%. Besides, in series [3], the inhibition at 1 µM was determined as 10%.
Turning to `c1cncc(-c2cc(-c3cncnc3)cs2)c1` [Compound 22], the figures for the pIC50 in series [1], in series [2] and in series [3] were 5.74, 5.46 and 5.74, respectively. The inhibition at 5 µM in series [4] came to 0%.
`Cc1ccc(-c2csc(-c3cccnc3)c2)cn1` [Compound 7]: the pIC50 in series [1] is 5.33; in series [2] it was 5.47; in series [3], 5.80. Further, in series [4], the inhibition at 5 µM amounted to 0%.
Consider `c1ccc2c(-c3csc(-c4cnco4)c3)cncc2c1` [Compound 39], for which the inhibition at 5 µM in series [1] stood at 20%; in series [3] (at 5 µM), 19%. The pIC50 in series [2] is 5.09.
Consider `c1cncc(-c2cc(-c3cncc4ccccc34)cs2)c1` [Compound 21], for which the pIC50 in series [1] is 5.46; in series [2], 5.49; in series [3], 5.54. In addition, the inhibition at 5 µM in series [4] was determined as 6%.
For `Cc1cncc(-c2csc(-c3cncnc3)c2)c1` [Compound 43], the negative logarithm of the IC50 (pIC50) in series [1] was 5.30; in series [2] it was 5.66; in series [3], 5.42. The inhibition at 5 µM in series [4] is -15%.
Taken in the same sequence, the figures for `c1cncc(-c2cc(-c3cnc4ccccc4c3)cs2)c1` [Compound 20] were 5.96, 6.05, 5.74 and 27%.
On to `Nc1cc(-c2csc(-c3cccnc3)c2)cnc1Cl` [Compound 23], for which the pIC50 is 5.89 in series [1], 5.85 in series [2] and 6.52 in series [3]. Also, in series [4], the inhibition at 5 µM worked out at 0%.
Taken in the same sequence, the figures for `FC(F)(F)c1cncc(-c2csc(-c3cccnc3)c2)c1` [Compound 14] were 5.51, 5.27, 5.52 and 0%.
Taken in the same sequence, the figures for `c1ncc(-c2cc(-c3cn[nH]c3)cs2)o1` [Compound 38] were 5.82, 5.66, 5.82 and -20%.
Consider `N#Cc1cncc(-c2csc(-c3cccnc3)c2)c1` [Compound 13], for which the pIC50 in series [1] is 5.59. In addition, the inhibition at 5 µM worked out at 30% in series [2], 3% in series [4] and 44% in series [3] (at 5 µM).
Regarding `COC(=O)c1cncc(-c2csc(-c3cccnc3)c2)c1` [Compound 18], the pIC50 in series [1] is 5.92; in series [2], 5.77; in series [3], 5.82. For the same compound, the inhibition at 5 µM in series [4] was 14%.
`Clc1cncc(-c2csc(-c3cccnc3)c2)c1` [Compound 16]: the pIC50 was 5.92 in series [1], 5.72 in series [2] and 6.15 in series [3]. Moreover, the inhibition at 5 µM in series [4] is 14%.
Turning to `Clc1cncc(-c2csc(-c3cnco3)c2)c1` [Compound 34], the inhibition at 5 µM in series [1] was 0%; in series [2] it was 18%; in series [3] (at 5 µM), 12%.
Take `Clc1cncc(-c2csc(-c3cncnc3)c2)c1` [Compound 42]: the inhibition at 5 µM in series [1] came to 1%; in series [2], 5%; in series [3] (at 5 µM), 0%.
Turning to `[O-][n+]1cccc(-c2csc(-c3cccnc3)c2)c1` [Compound 25], the inhibition at 5 µM in series [1] stood at 4%.
Same read-out and setting: for `Cc1cc(O)cc(-c2csc(-c3cccc(O)c3)c2)c1` [Compound 2] the value was 10%.
`c1cc2cc(-c3csc(-c4cnco4)c3)ccc2[nH]1` [Compound 40]: the inhibition at 5 µM in series [1] came to 18%; in series [2], 9%; in series [3] (at 5 µM) it was 30%.
As to `Cn1cncc1-c1csc(-c2cccnc2)c1` [Compound 31], the inhibition at 5 µM in series [1] was 44%. The figures for the pIC50 in series [2] and in series [3] were 5.04 and 5.29, respectively.
As to `c1ncc(-c2csc(-c3cnco3)c2)cn1` [Compound 36], the results for the inhibition at 5 µM in series [1], in series [2] and in series [3] (at 5 µM) were 25%, 40% and 16%, respectively.
Take `Cn1cnc2cc(-c3csc(-c4cccnc4)c3)cnc21` [Compound 24]: the inhibition at 5 µM in series [1] worked out at 37%; in series [4] it was 7%. The inhibition at 1 µM in series [2] is 13%. In addition, the pIC50 in series [3] was 6.20 and 6.22.
`Cc1cc(-c2csc(-c3cccc(O)c3)c2)ccc1O` [Compound 1]: the pIC50 in series [1] was 5.70. In addition, the inhibition at 5 µM in series [4] is 15%.
As to `CSc1ncc(-c2csc(-c3cnco3)c2)cn1` [Compound 37], the values for the inhibition at 5 µM in series [1], in series [2] and in series [3] (at 5 µM) were 7%, 21% and 5%, respectively.
